Data reported in US9422238B2, “ICMT inhibitors” (National University of Singapore, priority 2012, dated 2016).
Like-named read-outs stand apart in the source and are kept apart here.

Legend:
[1] = molecular target: T1, Isoprenylcysteine carboxyl methyltransferase (Icmt) (Homo sapiens, UniProt O60725); experiment: Icmt inhibition, scintillation proximity assay with BFC and [3H]SAM; assay type: biochemical; settings: for IC50: Table 3, mean of two or more determinations (SD), read-out: IC50 Icmt
T1 construct: made in house; host or cells: Sf9 (Spodoptera frugiperda) insect cells; membrane preparation provided by Prof PJ Casey (Duke University / Duke-NUS)
T1 sequence (O60725 whole entry, species assumed): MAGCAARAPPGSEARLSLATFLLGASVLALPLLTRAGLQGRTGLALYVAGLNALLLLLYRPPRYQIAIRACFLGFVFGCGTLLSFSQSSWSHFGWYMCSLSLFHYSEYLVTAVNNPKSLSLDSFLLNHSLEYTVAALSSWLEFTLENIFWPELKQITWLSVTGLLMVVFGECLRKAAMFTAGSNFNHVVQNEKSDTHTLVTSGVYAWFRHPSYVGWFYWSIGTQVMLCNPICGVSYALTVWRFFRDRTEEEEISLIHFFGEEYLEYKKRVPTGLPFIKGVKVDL
Procedure: Isoprenylcysteine carboxyl methyltransferase (Icmt) was provided by Prof PJ Casey of Duke University, NC. S-Adenosylmethionine (SAM), magnesium chloride Hexahydrate (MgCl2), tartrazine, 4-(2-hydroxyethyl)-1-piperazineethanesulfonic acid (HEPES), dimethyl sulfoxide (DMSO) and dithiotreitol (DTT) were purchased from Sigma (Mo, USA). [^3H] S-Adenosylmethionine, [^3H] Biotin and Streptavidin PVT SPA Beads were purchased from PerkinElmer (Waltham, Mass.). Assays were performed in black small volume 384 well microtitre plates from PerkinElmer.
Stocks of Icmt membrane protein (30 μg/μL) stored at −80° C. were thawed at 37° C. and placed on ice. The Icmt membrane protein was diluted in assay buffer (70 mM HEPES, 100 mM NaCl, 5 mM Mg Cl2 and 3 mM DTT, pH 7.5) to a 0.03 μg/μL working concentration and added to the wells of a microtitre plate (5 μl/well). To each wells 20 μl of the reaction buffer was added. The reaction was initiated with the addition of 5 μL of substrate solution containing BFC (6 μM), SAM (3 μM) and 30 μCi/mL [^3H] SAM (all of these reagents were stored at −20° C., SAM reagents thawed on ice, BFC thawed at RT). The plate was incubated at 37° C. for 30 minutes. The reaction was stopped with the addition of 15 μL of stop solution containing SAM (150 μM) and Streptavidin SPA beads (20 mg/mL). Following overnight incubation at ambient temperature radioactivity was counted on a Microbeta Trilux™ (Perkin Elmer, Turku, Finland).
Sf9 (Spodoptera frugiperda ovarian) membranes containing recombinant Icmt were provided by Prof PJ Casey (Duke University, NC and Duke-NUS Graduate Medical School). S-Adenosylmethionine (SAM), magnesium chloride hexahydrate, tartrazine, 4-(2-hydroxyethyl)-1-piperazineethanesulfonic acid (HEPES) and dithiotreitol (DTT) were purchased from Sigma (Mo, USA). [^3H] S-Adenosylmethionine, [^3H] biotin and streptavidin PVT SPA Beads were purchased from PerkinElmer (Waltham, Mass.). Biotinylated farnesylcysteine was synthesized as described in an earlier report. Assays were performed in black 384-well microtitre plates from PerkinElmer.
A vial of Icmt membrane protein (30 μg/μL) stored at −80° C. was thawed at 37° C. and placed on ice. The protein was diluted in assay buffer (70 mM HEPES, 100 mM NaCl, 5 mM MgCl2, 3 mM DTT, pH 7.5) to 0.03 μg/μL and aliquots were added to each well (5 μL/well), followed by 20 μL of the assay buffer. The reaction was initiated by adding 5 μL of a solution containing biotinylated BFC (6 μM), SAM (3 μM) and 30 μCi/mL [^3H] SAM. These reagents were stored at −20° C. and thawed on ice (SAM, [^3H] SAM) or at room temperature (BFC). The plate was incubated at 37° C. for 30 minutes after which the reaction was quenched by adding 15 μL of a solution comprising SAM (150 μM) and streptavidin SPA beads (20 mg/mL). After overnight incubation at ambient temperature, radioactivity was counted (Microbeta Trilux™, Perkin Elmer, Turku, Finland). The degree of inhibition was assessed from the radioactivity obtained in presence of test compound compared to that obtained from the control sample […]. Two independent determinations were made for each test compound.

[2] = test system: MDA-MB-231 human breast cells; experiment: Antiproliferative activity / cell viability (MTS, 72 h)
Procedure: (§1) The relative number of the live cells was determined using the CellTiter® 96 AQueous One Solution Cell Proliferation Assay (Promega). Determinations were made in duplicates or triplicates.
Human breast cancer MDA-MB231, liver cancer HepG2 and lung fibroblast cells were purchased from ATCC (Rockville, Md.). MDA-MB231 cells and IMR-90 cells were grown in DMEM (Sigma Aldrich, Singapore) and EMEM (Sigma Aldrich, Singapore) respectively at 37° C., 5% CO2. DMEM was supplemented with 10% fetal bovine serum (Invitrogen, heat treated at 65 deg C., 30 min), 50 units/L penicillin-G and 50 μg/mL streptomycin. EMEM was supplemented with 10% fetal bovine serum (heat treated as above), 100 mg/L penicillin-G and 100 μg/mL streptomycin.
Cell viability was assessed using CellTitre 96® Aqueous One Solution (Promega, Madison, Wis.) containing the tetrazolium salt 3-(4,5-dimethylthiazol-2-yl)-5-(3-carboxymethoxyphenyl)-2-(4-sulfophenyl)-2H-tetrazolium (MTS). […] Final concentration of DMSO per well was maintained at 0.5% v/v. […] Cell viability was determined from the expression:
The plot was constrained to ≧0 and ≦100%. At least 3 independent determinations of IC50 were made using two different stock solutions of test compound.

[3] = test system: PC3 Prostrate cancer cells; experiment: as above; assay type: cell-based, human
Procedure: as §1

[4] = Homo sapiens, MDA-MB-231, 72 h, read-out: IC50MDA-MB-231 (μM)
[5] = Homo sapiens, PC-3M, Table 3, 72 h, mean (SD), read-out: IC50 PC3
[6] = read-out: IC50MDA-MB-231, Table 3, 72 h, mean (SD)
[7] = Table 3, 72 h, mean (SD), read-out: IC50 PC3
[8] = Homo sapiens, MDA-MB-231, read-out: IC50 (μM) MDA-MB231
[9] = Homo sapiens, Table 5, read-out: IC50 (μM) PC 3

| SMILES | IC50 [1] | IC50 [2, 4] | IC50 [3, 5] | IC50 [2, 8] | IC50 [3, 9] | also measured |
| --- | --- | --- | --- | --- | --- | --- |
| CCCCCCCCn1cc(CN(CC)CC)c2cc(-c3ccccc3F)ccc21 [Compound 8-2] | 2.56 µM | – | – | – | – | – |
| CCCCCCCCn1cc(CN(CC)CC)c2cc(-c3cccc(F)c3)ccc21 [Compound 8-3] | 1.61 µM | – | – | – | – | – |
| CCCCCCCCn1cc(CN(CC)CC)c2cc(-c3ccccc3C(F)(F)F)ccc21 [Compound 8-4] | 1.28 µM | 6.69 µM | 9.66 µM | – | – | – |
| CCCCCCCCn1cc(CN(CC)CC)c2cc(-c3cccc(C(F)(F)F)c3)ccc21 [Compound 8-5] | 2.61 µM | – | – | – | – | – |
| CCCCCCCCn1cc(CN(CC)CC)c2cc(-c3cccc(OC(F)(F)F)c3)ccc21 [Compound 8-6] | – | – | – | – | – | IC50 [2, 6]: 7.17 µM; IC50 [3, 7]: 11.2 µM |
| CCCCCCCCn1cc(CN(CC)CC)c2cc(-c3cnccc3F)ccc21 [Compound 8-8, Diethyl-[5(4-Fluoro-pyrdin-3yl)-1-octyl-1H-indol-3ylmethyl]-amine] | 0.96 µM | – | – | – | – | IC50 [2, 6]: 5.14 µM; IC50 [3, 7]: 5.88 µM |
| CCCCCCCCn1cc(CN(CC)CC)c2cc(-c3cnc(C#N)nc3)ccc21 [Compound 8-19, 5-(3-Diethylaminomethyl-1-octyl-1H-indol-5-yl)-pyrimidine-2-carbonitrile] | 2.26 µM | 3.95 µM | 5.92 µM | – | – | – |
| CCCCCCCCn1cc(CN(CC)CC)c2cc(-c3ccc(C#N)cc3)ccc21 [Compound 8-20, 4-(3-Diethylaminomethyl-1-octyl-1H-indol-5-yl)-benzonitrile] | 2.45 µM | 7.72 µM | 6.19 µM | – | – | – |
| CCCCCCCCn1cc(CN(CC)CC)c2cc(-c3cccc(O)c3)ccc21 [Compound 8-21, 3-(3-Diethylaminomethyl-1-octyl-1H-indol-5-yl)-phenol] | 5.43 µM | 14.8 µM | 17.4 µM | – | – | – |
| CCCCCCCCn1c2c(c3cc(F)ccc31)CN(C)CC2 [Compound 199, 8-fluoro-2-methyl-5-n-octyl-1,2,3,4-tetrahydropyrido[4,3-b]indole] | – | 19.2 µM | 15.5 µM | – | – | – |
| CCCCCCCCn1c2c(c3cc(F)ccc31)CN(Cc1ccc(O)cc1)CC2 [Compound 205, 8-fluoro-2-(4′-hydroxybenzyl)-5-n-octyl-1,2,3,4-tetrahydropyrido[4,3-b]indole] | – | 10.5 µM | 10.5 µM | 10.5 ± 0.08 µM | 10.5 ± 0.28 µM | – |
| CCCCCCCCn1c2c(c3cc(-c4cccc(C)c4)ccc31)CN(C)CC2 [Compound 235, 2-methyl-8-m-tolyl-5-n-octyl-1,2,3,4-tetrahydropyrido[4,3-b]indoles] | 10.3 µM | 9.18 µM | 7.58 µM | – | – | times less potent as an Icmt inhibitor than 8-1 ([1]; ratio of IC50 Icmt): ~5 |
| CCCCCCCCn1c2c(c3cc(-c4cccc(C)c4)ccc31)CN(Cc1ccc(O)cc1)CC2 [Compound 240, 2-(4′-hydroxybenzyl)-8-m-tolyl-5-n-octyl-1,2,3,4-tetrahydropyrido[4,3-b]indoles] | – | – | – | – | – | IC50 [2, 6]: 14.8 µM; IC50 [3, 7]: 10.2 µM |
| CCCCCCCCn1c2c(c3cc(-c4cccc(C)c4)ccc31)CN(C(C)C)CC2 [Compound 260, 2-isopropyl-8-m-tolyl-5-n-octyl-1,2,3,4-tetrahydropyrido[4,3-b]indoles] | 8.3 µM | 7.38 µM | 9.69 µM | 7.38 ± 0.48 µM | 9.69 ± 1.84 µM | – |
| CC(C)=CCn1c2c(c3cc(-c4cccc(C)c4)ccc31)CN(Cc1ccc(O)cc1)CC2 [Compound 300, 2-(4′-hydroxybenzyl)-5-isoprenyl-8-m-tolyl-1,2,3,4-tetrahydropyrido[4,3-b]indoles] | – | 9.38 µM | 13.3 µM | 9.38 ± 0.92 µM | 13.3 ± 5.7 µM | – |
| CCCCCCCCn1c2c(c3cc(-c4ccc(S(C)(=O)=O)cc4)ccc31)CN(C)CC2 [Compound 306, 2-methyl-8-(4′-(methylsulfonyl)phenyl)-5-n-octyl-1,2,3,4-tetrahydropyrido[4,3-b]indole] | – | 4.6 µM | 5.38 µM | – | – | – |
| CCCCCCCCn1c2c(c3cc(-c4cnc(N)nc4)ccc31)CNCC2 [Compound 309, 8-(2′-amino-pyrimidin-5-yl)-5-n-octyl-1,2,3,4-tetrahydropyrido[4,3-b]indole] | – | 2.72 µM | 4.44 µM | – | – | – |

| SMILES | IC50 [1] | IC50 [2, 4] | IC50 [3, 5] | IC50 [2, 8] | IC50 [3, 9] | also measured |
| --- | --- | --- | --- | --- | --- | --- |
| CCCCCCCCn1c2c(c3cc(-c4ccc(S(C)(=O)=O)cc4)ccc31)CNCC2 [Compound 314, 8-(4′-(methylsulfonyl)phenyl)-5-n-octyl-1,2,3,4-tetrahydropyrido[4,3-b]indole] | – | 2.1 µM | 2.92 µM | – | – | – |
| CCCCCCCCn1c2c(c3cc(-c4ccnc(F)c4)ccc31)CNCC2 [Compound 315, 8-(2′-fluoropyridin-4-yl)-5-n-octyl-1,2,3,4-tetrahydro-1H-pyrido[4,3-b]indole] | – | – | – | – | – | IC50 [2, 6]: 4.59 µM; IC50 [3, 7]: 7.69 µM |
| CCCCCCCCn1c2c(c3cc(-c4cccc(C)c4)ccc31)CN(Cc1ccccc1)CC2 [cpd 214] | – | – | – | 8.6 ± 1.68 µM | 10.9 ± 2.31 µM | – |
| CCCCCCCCn1cc(C(=O)C(N)=O)c2cc(-c3cccc(C)c3)ccc21 [cpd 273] | – | – | – | > 50 µM | 16.7 ± 1.68 µM | – |
| CCCCCCCCn1c2c(c3cc(-c4cnc(N)nc4)ccc31)CN(C(N)=O)CC2 [cpd 319] | – | – | – | – | 9.43 ± 3.85 µM | – |
| CCCCCCCCn1c2c(c3cc(-c4cccc(C)c4)ccc31)CN(C(N)=O)CC2 [cpd 321] | – | – | – | – | 10.5 ± 3.08 µM | – |
| CCCCCCCCn1c2c(c3cc(-c4ccnc(F)c4)ccc31)CN(C(N)=O)CC2 [cpd 323] | – | – | – | – | 10.2 ± 3.63 µM | – |
| CCCCCCCCn1c2c(c3cc(-c4ccc(S(C)(=O)=O)cc4)ccc31)CN(C(N)=O)CC2 [cpd 324] | – | – | – | – | 8.88 ± 0.62 µM | – |
| CCCCCCCCn1c2c(c3cc(-c4cnc(N)nc4)ccc31)CN(C(C)C)CC2 [cpd 474] | – | – | – | 9.17 ± 0.54 µM | 9.32 ± 0.65 µM | – |
| CCCCCCCCn1c2c(c3cc(-c4cnc(N)nc4)ccc31)CN(C(=O)OCC)CC2 [cpd 480] | – | – | – | 17 µM | 21.3 µM | – |
| CCCCCCCCn1c2c(c3cc(-c4cccc(C)c4)ccc31)CN(C(=O)OCC)CC2 [cpd 481] | – | – | – | 25.9 µM | 30.1 µM | – |
| CCCCCCCCn1c2c(c3cc(-c4cnc(N)nc4)ccc31)CN(S(C)(=O)=O)CC2 [cpd 488] | – | – | – | 27.4 µM | – | – |
| CCCCCCCCn1c2c(c3cc(-c4cnc(N)nc4)ccc31)CN(CC)CC2 [cpd 490] | – | – | – | 5.85 µM | – | – |
| CCCCCCCCn1c2c(c3cc(-c4cnc(N)nc4)ccc31)CN(CCO)CC2 [cpd 510] | – | – | – | 3.42 ± 0.72 µM | 3.97 ± 0.42 µM | – |
| CCCCCCCCn1cc(CC(N)=O)c2cc(-c3cnc(N)nc3)ccc21 [cpd 512] | – | – | – | > 50 µM | > 50 µM | – |
| CCCCCCCCn1cc(CC(N)=O)c2cc(-c3ccnc(F)c3)ccc21 [cpd 513] | – | – | – | 26.1 ± 0.41 µM | 25.6 ± 3.48 µM | – |
